Experiment [1] deals with Aβ(1-40). The experiment can be described thus: Thioflavin T fluorescence assay of Aβ fibril formation. It is filed as biochemical. On the procedure:
Fibril formation of Aβ(1-40) or Aβ(12-28) with and without the presence of the ligands was assessed by the fibril-binding dye thioflavin T (ThT). Solutions containing Aβ peptides in concentrations from about 20 µM to 200 µM without ligand present, or at different peptide/ligand ratios were prepared in 10 mM sodium phosphate buffer, pH 7. The samples were incubated at 37°C under constant gentle shaking. At different time points aliquots were removed and ThT measurements performed using 10 µM ThT in 10 mM sodium phosphate buffer, pH 6, containing 150mMNaCl.
The samples were incubated for 10-15 minutes in the dark before ThT fluorescence measurements were made. Fluorescence was measured using a FarCyte™ (Tecan) instrument with excitation at 440 nm and emission at 480 nm. All samples were measured in duplicates.

Experiment [2] has as its system Drosophila melanogaster express Aβ1-42 in neurons. In words: Longevity in Drosophila model of Alzheimer's disease. The experiment is classed as in vivo. The text has this:
A model of Alzheimer's disease was used in which Drosophila melanogaster express Aβ1-42 in neurons (Crowther et al., 2005, Neuroscience 132:123-135).

Experiment [3] deals with wild type Drosophila (WIII8) that do not express Aβ(1-42). In words: Longevity in control flies not expressing Aβ. It is filed as in vivo. The note with it: 650 µM in the food; control flies not expressing Aβ (Fig. 13).
The test system of experiment [4] is Aβ(12-28). The experiment can be described thus: Tryptophan fluorescence emission of ligand (binding to Aβ). The note with it: after addition of Aβ(12-28); excitation 280 nm. The method, then: (§1) In these experiments, shifts in fluorescence emission were used to indicate binding. In these experiments, ligand 3 (about 10 µM) was dissolved in sodium phosphate buffer, pH 7, with or without trifluoroethanol present. Fluorescence was measured in a Hitachi F-4000 spectrophotometer, and emission was measured between 300 and 430 nm after excitation at 280 nm.
(§2) When Aβ(1-40) or Aβ(12-28) was added to a solution containing ligand 3, the fluorescence yield was increased (e.g., Fig 7) and the wavelength at maximum emission was shifted from about 348 nm to 344 nm.

The test system of experiment [5] is Aβ(1-40). The description is as above. The following applies: excitation 280 nm; for emission maximum: sodium phosphate buffer pH 7, 30% (v/v) trifluoroethanol, 20°C. On the procedure: as §1, §2
The test system of experiment [6] is Aβ(12-28). The experiment can be described thus: Circular dichroism spectroscopy of Aβ secondary structure. The experiment is classed as biochemical. The note with it: 1:1 molar ratio, sodium phosphate buffer pH 7, 30% (v/v) trifluoroethanol, 20°C; compared with Aβ(12-28) alone; ligand spectrum subtracted. On the procedure:
Compounds described herein can be tested for their ability to affect the secondary structure of an Aβ peptide. As an example, addition of ligands to Aβ(1-40) or Aβ(12-28) in solution increased the helical content of Aβ peptides, as measured by circular dichroism (CD) spectroscopy. This is evidenced by a decrease in molar ellipticity at 208 and 222 nm, and an increase in molar ellipticity at 190-195 nm (an example is shown in Fig. 6). In these experiments, Aβ peptides (concentration about 20 µM to 100 µM) were mixed with ligands in ligand/Aβ molar ratios ranging between 1 and 10. The measurements were performed in phosphate buffer (as described below for thioflavin T measurements) or in phosphate buffer containing 30% trifluoroethanol. The samples were incubated at 37°C with or without shaking before measurements. CD measurements were performed at room temperature in a Jasco 810 instrument using a 1 mm cuvette (sample volume 200-300 µl). For each sample, three spectra were accumulated. Spectra were measured between 260 and 185 nm, and the spectra of buffer and ligands alone were subtracted from the spectra of the mixtures. Molar ellipticity values were calculated using the recorded spectra and the peptide concentrations, and expressed in kdeg x cm^2/dmol. […]

SMILES strings stand for the structures. Where a SMILES comes first, the peptide text is derived from it. Bridges are numbered along the chain shown (N, C = ends). Roman numbers before positions name the chains, in order. [ ]: non-standard residue; d: D form. Dab = NCC[C@H](N)C(=O)O

In the case of `CC(=O)N[C@H](CCC(=O)O)C(=O)N[C@@H](CCNC(=O)[C@@H](Cc1c[nH]c2ccccc12)NC(=O)[C@@H](N)CCCNC(=N)N)C(=O)O` [ligand 3, Ac-D-Glu-Dab(Arg-D-Trp)] (I: H-Arg-[dW] / II: Ac-[dE]-[Dab]-OH; amide I:C-II:2), the “Aβ(1-40) fibril formation, as measured by ThT binding” value in the experiment with Aβ(1-40) [1] (1:1 ligand/peptide molar ratio, 1.5 hours at 37°C (Fig. 9)) is “effective in reducing Aβ(1-40) fibril formation”. In addition, the “ThT fluorescence induced by Aβ(1-40)” value in the experiment with Aβ(1-40) [1] (different periods of incubation at 37°C, 10 mM sodium phosphate pH 7, 5:1 or 10:1 ligand/Aβ molar ratio (Fig. 8)) is “practically abolished”. Also, the ThT fluorescence entry is “further reduction of ThT fluorescence” in the experiment on Aβ(1-40) [1] (ligand/Aβ ratio 5, compared with 1:1, 1.5 hours at 37°C (Fig. 9)) and “approximately the same result as a ligand/Aβ ratio of 5” in the experiment with Aβ(1-40) [1] (ligand/Aβ ratio 10, 1.5 hours at 37°C (Fig. 9)). Also, the mean survival time entry was “increased the mean survival time” in experiment [2] (134 µM in the food, 29°C and high humidity (Fig. 12)); “prolonged mean survival time” in experiment [2] (650 µM in the food, 28°C and low humidity, p=0.0035 (Fig. 11)). In addition, the longevity result in experiment [2] (fed from the larval stage, compared to untreated flies, two different experimental conditions) is listed as “significant increase in longevity”. The “effects on mean survival (longevity)” value in experiment [3] was “absence of a statistically significant difference”. For the same compound, the fluorescence yield result in the experiment with Aβ(12-28) [4] and with Aβ(1-40) [5] (after addition of Aβ(1-40)) was “increased” in each case. In addition, the entries for the “wavelength at maximum emission” value with Aβ(12-28) [4], with Aβ(1-40) [5] (after addition of Aβ(1-40)) and in the experiment on Aβ(1-40) [5] (ligand about 10 µM before addition of Aβ) were 344 nm, 344 nm and “about 348 nm”, respectively. The emission maximum is recorded as 344 nm in the experiment on Aβ(1-40) [5] (complex with Aβ(1-40), 1:1 molar ratio) and 348 nm in the experiment on Aβ(1-40) [5] (ligand only). In addition, the circular dichroism spectra result with Aβ(12-28) [6] is “lowest value at 222 nm and highest value at 195 nm”.

Values taken from EP1858912B1, “COMPOUNDS FOR REDUCING AGGREGATION OF AMYLOID BETA-PEPTIDE” (Alphabeta AB, priority 2005, dated 2012).
